Key:
Type in all cases: in vivo
[1] = tested on: Amaranthus retroflexus L. (pigweed); assay: Greenhouse pre-emergence treatment of Amaranthus retroflexus; details: application rate 1000 g/ha, scale 0 to 100
Description: The seeds of the test plants were sown separately for each species. For the pre-emergence treatment, the active ingredients, which had been suspended or emulsified in water, were applied directly after sowing by means of finely distributing nozzles. The containers were irrigated gently to promote germination and growth and subsequently covered with transparent plastic hoods until the plants had rooted. This cover caused uniform germination of the test plants, unless this has been impaired by the active ingredients. Depending on the species, the plants were kept at 10-25° C. or 20-35° C. The test period extended over 2 to 4 weeks. During this time, the plants were tended, and their response to the individual treatments was evaluated. Evaluation was carried out using a scale from 0 to 100. 100 means no emergence of the plants, or complete destruction of at least the aerial moieties, and 0 means no damage, or normal course of growth. A good herbicidal activity is given at values of at least 70 and a very good herbicidal activity is given at values of at least 85. The plants used in the greenhouse experiments belonged to the following species: [table]

[2] = tested on: Echinochloa crus-galli (barnyard grass); assay: Greenhouse post-emergence treatment of Echinochloa crus-galli; details: application rate 1000 g/ha, scale 0 to 100
Description: (§1) The seeds of the test plants were sown separately for each species. For the post-emergence treatment, the test plants were first grown to a height of 3 to 15 cm, depending on the plant habit, and only then treated with the active ingredients which had been suspended or emulsified in water. For this purpose, the test plants were either sown directly and grown in the same containers, or they were first grown separately as seedlings and transplanted into the test containers a few days prior to treatment. Depending on the species, the plants were kept at 10-25° C. or 20-35° C. The test period extended over 2 to 4 weeks. During this time, the plants were tended, and their response to the individual treatments was evaluated. Evaluation was carried out using a scale from 0 to 100. 100 means no emergence of the plants, or complete destruction of at least the aerial moieties, and 0 means no damage, or normal course of growth. A good herbicidal activity is given at values of at least 70 and a very good herbicidal activity is given at values of at least 85. The plants used in the greenhouse experiments belonged to the following species: [table]

[3] = tested on: Abutilon theophrasti (velvetleaf); assay: Greenhouse post-emergence treatment of Abutilon theophrasti; details: application rate 1000 g/ha, scale 0 (no damage) to 100 (complete destruction)
Description: as §1

Structure (SMILES)	damage [%] [1]	damage [%] [2]	damage [%] [3]
CON=C1CCS(=O)(=O)c2ccc(C(=O)Nc3ncnn3C)c(C)c21 [I.A-47]	70%	95%	100%
CON=C1CCS(=O)(=O)c2ccc(C(=O)Nc3nnnn3C)c(C)c21 [V.A-47]	100%	100%	100%

Source: US20150291570A1, “Substituted N-(tetrazol-5-yl)- and N-(triazol-5-yl)arylcarboxamide compounds and their use as herbicides” (BASF SE, priority 2012, published 2015)
